Reference: BindingDB's records for doi:10.1016/j.bmcl.2008.10.104 (Taisho Pharmaceutical, 2008)
pIC50: −log10 of the molar value. Residues, ends and D or L forms follow the SMILES beside them.

What was measured:
[1] = target: Sodium- and chloride-dependent glycine transporter 2 (Rattus norvegicus) (UniProt P58295); test: Inhibition of [3H]glycine uptake at rat glycine transporter 2 expressed in african green monkey COS7 cells
[2] = target: Sodium- and chloride-dependent glycine transporter 1 (Rattus norvegicus); test: Inhibition of [3H]glycine uptake at rat glycine transporter 1 expressed in african green monkey COS7 cells

Chain of Sodium- and chloride-dependent glycine transporter 2 (Rattus norvegicus) (P58295 whole entry, looked up): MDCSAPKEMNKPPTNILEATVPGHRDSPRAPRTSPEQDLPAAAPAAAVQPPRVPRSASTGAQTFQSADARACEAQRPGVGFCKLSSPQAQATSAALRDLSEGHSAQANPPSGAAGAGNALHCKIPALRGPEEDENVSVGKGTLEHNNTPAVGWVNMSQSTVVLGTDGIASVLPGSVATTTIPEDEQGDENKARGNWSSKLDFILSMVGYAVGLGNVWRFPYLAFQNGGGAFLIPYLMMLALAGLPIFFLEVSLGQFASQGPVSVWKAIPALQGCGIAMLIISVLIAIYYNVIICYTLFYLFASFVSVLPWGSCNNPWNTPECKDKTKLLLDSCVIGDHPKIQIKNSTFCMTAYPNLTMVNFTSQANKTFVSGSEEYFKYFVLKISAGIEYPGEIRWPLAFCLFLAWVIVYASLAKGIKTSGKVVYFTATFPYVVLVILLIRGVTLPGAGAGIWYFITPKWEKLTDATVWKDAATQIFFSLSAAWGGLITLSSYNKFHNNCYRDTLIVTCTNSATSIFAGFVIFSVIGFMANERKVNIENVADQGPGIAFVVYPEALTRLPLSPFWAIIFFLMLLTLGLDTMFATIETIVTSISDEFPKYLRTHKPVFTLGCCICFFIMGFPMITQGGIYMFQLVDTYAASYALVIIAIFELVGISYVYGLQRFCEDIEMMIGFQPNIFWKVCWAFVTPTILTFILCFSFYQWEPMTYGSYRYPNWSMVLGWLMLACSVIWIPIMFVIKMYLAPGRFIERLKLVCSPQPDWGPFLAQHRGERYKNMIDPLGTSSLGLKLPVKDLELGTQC

Row | SMILES | pIC50 [1] | pIC50 [2]
1 | N[C@@H](COC(c1cccc(F)c1)c1ccccc1OCc1ccccc1)C(=O)O (stereo partly drawn) [(2S)-2-amino-3-((2-(benzyloxy)phenyl)(3-fluorophenyl)methoxy)propanoic acid] | 7.68 | –
2 | CC[C@H](C)[C@@H]1NC(=O)[C@H](Cc2ccccc2)NC(=O)[C@H]([C@@H](C)CC)NC(=O)[C@H]([C@@H](C)CC)NC1=O [(3S,6S,9S,12S)-3-benzyl-6,9,12-tri-sec-butyl-1,4,7,10-tetraazacyclododecane-2,5,8,11-tetraone] (cyclo(FIII)) | 6.65 | –
3 | CC(C)[C@@H]1NC(=O)[C@H](Cc2ccccc2)NC(=O)[C@H]([C@H](C)[C@@H](C)O)NC(=O)[C@H](C(C)C)NC1=O [(3S,6S,9S,12S)-3-benzyl-6-((2S,3R)-3-hydroxybutan-2-yl)-9,12-diisopropyl-1,4,7,10-tetraazacyclododecane-2,5,8,11-tetraone] | 6.27 | 7.95
4 | CC[C@H](C)[C@@H]1NC(=O)[C@H](Cc2ccccc2)NC(=O)[C@H]([C@H](C)[C@@H](C)O)NC(=O)[C@H]([C@@H](C)CC)NC1=O [(3S,6S,9S,12S)-3-benzyl-9,12-di-sec-butyl-6-((2S,3R)-3-hydroxybutan-2-yl)-1,4,7,10-tetraazacyclododecane-2,5,8,11-tetraone] | 6.56 | 8.52
5 | CC[C@H](C)[C@@H]1NC(=O)[C@H](C(C)C)NC(=O)[C@H](Cc2ccccc2)NC(=O)[C@H]([C@H](C)[C@@H](C)O)NC1=O [(3S,6S,9S,12S)-3-benzyl-9-sec-butyl-6-((2S,3R)-3-hydroxybutan-2-yl)-12-isopropyl-1,4,7,10-tetraazacyclododecane-2,5,8,11-tetraone] | 6.35 | –
6 | CC[C@H](C)[C@@H]1NC(=O)[C@H](Cc2ccccc2)NC(=O)[C@H]([C@H](C)[C@@H](C)O)NC(=O)[C@H](C(C)C)NC1=O [(3S,6S,9S,12S)-3-benzyl-12-sec-butyl-6-((2S,3R)-3-hydroxybutan-2-yl)-9-isopropyl-1,4,7,10-tetraazacyclododecane-2,5,8,11-tetraone] | 6.24 | 7.99
7 | CC[C@H](C)[C@@H]1NC(=O)[C@H](Cc2ccccc2)NC(=O)[C@H]([C@H](CS(=O)(=O)O)C(C)=O)NC(=O)[C@H]([C@@H](C)CC)NC1=O [(S)-2-((2S,5S,8S,11S)-5-benzyl-8,11-di-sec-butyl-3,6,9,12-tetraoxo-1,4,7,10-tetraazacyclododecan-2-yl)-3-oxobutane-1-sulfonic acid] | 5.65 | 7.69
